In the supplement of paper PMC10627819:

Legend:
[1] = tested on: B. subtilis 168; assay: fitness (endpoint OD595 vs no drug) (fraction); higher = more growth
In short: (§1)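 Plates with 384 wells were inoculated at OD595 0.01 using 30 µl of TSB, LB Lennox or CY, or 55 µl for S. pneumoniae. Incubation was at 37 °C, with OD595 measured every 30 min for 14 h. Fitness is the stationary-phase transition optical density over the robust mean of no-drug control wells, after first-reading background subtraction; it is capped at 1.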

[2] = tested on: S. pneumoniae D39V; assay: as above
In short: as §1

[3] = tested on: B. subtilis 168; assay: Bliss interaction score (quartile over a dose matrix) (fitness difference); higher = more antagonism (negative = synergy)
In short: (§2)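 Fitness was defined as normalised growth: OD595 at the start of stationary phase divided by the plate's robust no-drug mean and capped at 1. Single-drug fitness was inferred from combination measurements. The Bliss score is observed fitness minus the product of the single-drug values, summarised by quartiles across technical, biological and donor/recipient replicates.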

[4] = tested on: S. aureus DSM 20231; assay: as above
In short: as §2

[5] = tested on: S. aureus Newman; assay: as above
In short: as §2

[6] = tested on: S. pneumoniae D39V; assay: as above
In short: as §2
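Throughout, for Bliss interaction score (quartile over a dose matrix): first quartile when negative (synergy) and third quartile when positive (antagonism).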

C[C@H]1COc2c(N3CCN(C)CC3)c(F)cc3c(=O)c(C(=O)O)cn1c23 [Levofloxacin] + CC(=O)NC[C@H]1CN(c2ccc(N3CCOCC3)c(F)c2)C(=O)O1 [Linezolid]
fitness, [1], one replicate
Conditions | first compound 0.001 µg/mL | first compound 0.002 µg/mL | first compound 0.0039 µg/mL | first compound 0.0078 µg/mL
partner 0.0625 µg/mL | – | 0.886 | 0.846 | 0.862
partner 0.125 µg/mL | 0.82 | – | – | 0.615
partner 0.25 µg/mL | 0.66 | – | – | 0.0853
partner 0.5 µg/mL | 0.0709 | 0.0326 | 0.0626 | –

Conditions | fitness
[1], first compound 0.002 µg/mL, partner 0.125 µg/mL | 0.696
[1], first compound 0.0039 µg/mL, partner 0.125 µg/mL | 0.683
[1], first compound 0.0312 µg/mL, partner 0.125 µg/mL | 0.0311
[1], first compound 0.0312 µg/mL, partner 0.25 µg/mL | 0.0424
[1], first compound 0.0312 µg/mL, partner 0.5 µg/mL | 0.045
[1], first compound 0.0625 µg/mL, partner 0.125 µg/mL | 0.0397
[1], first compound 0.0625 µg/mL, partner 0.25 µg/mL | 0.0517
[1], first compound 0.0625 µg/mL, partner 0.5 µg/mL | 0.0516
[1], first compound 0.125 µg/mL, partner 0.125 µg/mL | 0.0523
[1], first compound 0.125 µg/mL, partner 0.25 µg/mL | 0.0524
[1], first compound 0.125 µg/mL, partner 0.5 µg/mL | 0.0424
[2], first compound 0.1725 µg/mL, partner 0.2 µg/mL | 0.848
[2], first compound 0.1725 µg/mL, partner 0.4 µg/mL | 0.669
[2], first compound 0.1725 µg/mL, partner 0.8 µg/mL | 0.333
[2], first compound 0.2 µg/mL, partner 0.105 µg/mL | 0.81
[2], first compound 0.2 µg/mL, partner 0.21 µg/mL | 0.694
[2], first compound 0.2 µg/mL, partner 0.42 µg/mL | 0.568
[2], first compound 0.345 µg/mL, partner 0.2 µg/mL | 0.777
[2], first compound 0.345 µg/mL, partner 0.4 µg/mL | 0.591
[2], first compound 0.345 µg/mL, partner 0.8 µg/mL | 0.295
[2], first compound 0.4 µg/mL, partner 0.105 µg/mL | 0.72
[2], first compound 0.4 µg/mL, partner 0.21 µg/mL | 0.652
[2], first compound 0.4 µg/mL, partner 0.42 µg/mL | 0.506
[2], first compound 0.69 µg/mL, partner 0.2 µg/mL | 0.555
[2], first compound 0.69 µg/mL, partner 0.4 µg/mL | 0.323
[2], first compound 0.69 µg/mL, partner 0.8 µg/mL | 0.196
[2], first compound 0.8 µg/mL, partner 0.105 µg/mL | 0.449
[2], first compound 0.8 µg/mL, partner 0.21 µg/mL | 0.351
[2], first compound 0.8 µg/mL, partner 0.42 µg/mL | 0.284

Conditions | Bliss interaction score
[3] | 0.0633
[4] | 0.0666
[5] | 0.0972
[6] | 0.0612

C[C@H]1COc2c(N3CCN(C)CC3)c(F)cc3c(=O)c(C(=O)O)cn1c23 [Levofloxacin] + CCC(C)C1C(=O)NC(=C)C(=O)NC(C(=O)NC(CSCC(C(=O)N1)NC(=O)/C(=C/C)/NC(=O)C(C(C)CC)N)C(=O)NC2C(SCC(NC(=O)CNC(=O)C3CCCN3C2=O)C(=O)NC(CCCCN)C(=O)NC4C(SCC(NC(=O)CNC(=O)C(NC(=O)C(NC(=O)C(NC(=O)CNC4=O)C)CC(C)C)CCSC)C(=O)NC(CC(=O)N)C(=O)NC(CCSC)C(=O)NC(CCCCN)C(=O)NC5C(SCC6C(=O)NC(C(=O)NC(CSC(C(C(=O)N6)NC(=O)C(NC5=O)C)C)C(=O)NC(CO)C(=O)NC(C(C)CC)C(=O)NC(CC7=CN=CN7)C(=O)NC(C(C)C)C(=O)NC(=C)C(=O)NC(CCCCN)C(=O)O)CC8=CN=CN8)C)C)C)CC(C)C [Nisin]
fitness, [1], one replicate, main component drawn
Conditions | first compound 0.001 µg/mL | first compound 0.002 µg/mL | first compound 0.0039 µg/mL | first compound 0.0078 µg/mL | first compound 0.0312 µg/mL | first compound 0.0625 µg/mL | first compound 0.125 µg/mL
partner 0.5 µg/mL | 0.923 | 0.904 | 0.898 | – | 0.0428 | 0.0426 | 0.0499
partner 1 µg/mL | 0.88 | 0.871 | 0.882 | – | 0.032 | 0.0609 | 0.0546
partner 1.25 µg/mL | – | 0.883 | 0.888 | 0.868 | – | – | –
partner 1.6 µg/mL | – | 0.744 | 0.734 | 0.701 | – | – | –
partner 2 µg/mL | 0.778 | 0.76 | 0.747 | – | 0.0482 | 0.0558 | 0.0347
partner 2.5 µg/mL | – | 0.696 | 0.319 | 0.598 | – | – | –
partner 3.2 µg/mL | – | 0.0329 | 0.0154 | 0.0243 | – | – | –
partner 4 µg/mL | – | – | – | – | 0.0425 | 0.0381 | 0.0437
partner 5 µg/mL | – | 0.0276 | 0.088 | 0.112 | – | – | –
partner 6.4 µg/mL | – | 0.0319 | 0.0555 | 0.0288 | – | – | –
partner 8 µg/mL | – | – | – | – | 0.0314 | 0.0402 | 0.0327
partner 16 µg/mL | – | – | – | – | 0.0291 | 0.0222 | 0.0121

[2], main component drawn
Conditions | fitness
first compound 0.1725 µg/mL, partner 1.6 µg/mL | 0.157
first compound 0.1725 µg/mL, partner 3.2 µg/mL | 0.0386
first compound 0.1725 µg/mL, partner 6.4 µg/mL | 0.0067
first compound 0.2 µg/mL, partner 0.4275 µg/mL | 0.906
first compound 0.2 µg/mL, partner 0.855 µg/mL | 0.956
first compound 0.2 µg/mL, partner 1.71 µg/mL | 0.0809
first compound 0.345 µg/mL, partner 3.2 µg/mL | 0.0036
first compound 0.345 µg/mL, partner 6.4 µg/mL | 0.0023
first compound 0.4 µg/mL, partner 0.4275 µg/mL | 0.844
first compound 0.4 µg/mL, partner 1.71 µg/mL | 0.0708
first compound 0.69 µg/mL, partner 1.6 µg/mL | 0.0158
first compound 0.69 µg/mL, partner 3.2 µg/mL | 0.0153
first compound 0.69 µg/mL, partner 6.4 µg/mL | 0.0526
first compound 0.8 µg/mL, partner 0.4275 µg/mL | 0.298
first compound 0.8 µg/mL, partner 0.855 µg/mL | 0.102
first compound 0.8 µg/mL, partner 1.71 µg/mL | 0.0697

main component drawn
Conditions | Bliss interaction score
[3] | 0.0523
[4] | 0.0616
[5] | -0.0668
[6] | -0.0976

C[C@H]1COc2c(N3CCN(C)CC3)c(F)cc3c(=O)c(C(=O)O)cn1c23 [Levofloxacin] + CCC[C@@H]1C[C@@H](C(=O)N[C@@H]([C@H]2O[C@H](SC)[C@H](O)[C@@H](O)[C@H]2O)[C@@H](C)O)N(C)C1 [Lincomycin]
fitness, [1], one replicate
Conditions | partner 0.1 µg/mL | partner 0.2 µg/mL | partner 0.4 µg/mL | partner 0.8 µg/mL | partner 1.6 µg/mL
first compound 0.001 µg/mL | – | – | 0.789 | 0.889 | 0.849
first compound 0.002 µg/mL | ≥ 1 | 0.968 | – | 0.797 | 0.767
first compound 0.0039 µg/mL | ≥ 1 | 0.975 | – | 0.743 | 0.806
first compound 0.0078 µg/mL | 0.997 | 0.961 | 0.945 | – | –

Conditions | fitness
[1], first compound 0.002 µg/mL, partner 0.4 µg/mL | 0.897
[1], first compound 0.0039 µg/mL, partner 0.4 µg/mL | 0.888
[1], first compound 0.0312 µg/mL, partner 0.1 µg/mL | 0.0367
[1], first compound 0.0312 µg/mL, partner 0.2 µg/mL | 0.0349
[1], first compound 0.0312 µg/mL, partner 0.4 µg/mL | 0.0483
[1], first compound 0.0625 µg/mL, partner 0.1 µg/mL | 0.0423
[1], first compound 0.0625 µg/mL, partner 0.2 µg/mL | 0.0292
[1], first compound 0.0625 µg/mL, partner 0.4 µg/mL | 0.0493
[1], first compound 0.125 µg/mL, partner 0.1 µg/mL | 0.0441
[1], first compound 0.125 µg/mL, partner 0.2 µg/mL | 0.0449
[1], first compound 0.125 µg/mL, partner 0.4 µg/mL | 0.0489
[2], first compound 0.1725 µg/mL, partner 0.2 µg/mL | 0.768
[2], first compound 0.1725 µg/mL, partner 0.4 µg/mL | 0.7
[2], first compound 0.1725 µg/mL, partner 0.8 µg/mL | 0.266
[2], first compound 0.2 µg/mL, partner 0.215 µg/mL | 0.807
[2], first compound 0.2 µg/mL, partner 0.43 µg/mL | 0.77
[2], first compound 0.2 µg/mL, partner 0.86 µg/mL | 0.5
[2], first compound 0.345 µg/mL, partner 0.2 µg/mL | 0.726
[2], first compound 0.345 µg/mL, partner 0.4 µg/mL | 0.639
[2], first compound 0.345 µg/mL, partner 0.8 µg/mL | 0.201
[2], first compound 0.4 µg/mL, partner 0.215 µg/mL | 0.754
[2], first compound 0.4 µg/mL, partner 0.43 µg/mL | 0.68
[2], first compound 0.4 µg/mL, partner 0.86 µg/mL | 0.379
[2], first compound 0.69 µg/mL, partner 0.2 µg/mL | 0.542
[2], first compound 0.69 µg/mL, partner 0.4 µg/mL | 0.503
[2], first compound 0.69 µg/mL, partner 0.8 µg/mL | 0.18
[2], first compound 0.8 µg/mL, partner 0.215 µg/mL | 0.691
[2], first compound 0.8 µg/mL, partner 0.43 µg/mL | 0.596
[2], first compound 0.8 µg/mL, partner 0.86 µg/mL | 0.272

Conditions | Bliss interaction score
[3] | 0.0149
[4] | 0.169
[5] | 0.0423
[6] | 0.104

C[C@H]1COc2c(N3CCN(C)CC3)c(F)cc3c(=O)c(C(=O)O)cn1c23 [Levofloxacin] + CCN(CC)CCOC(=O)c1ccc(N)cc1 [Procaine]
fitness, one replicate
Conditions | first compound 0.001 µg/mL | first compound 0.002 µg/mL | first compound 0.0039 µg/mL | first compound 0.2 µg/mL | first compound 0.4 µg/mL | first compound 0.8 µg/mL
[1], partner 85.5 µg/mL | 0.882 | 0.83 | 0.861 | – | – | –
[1], partner 171 µg/mL | 0.923 | 0.824 | 0.869 | – | – | –
[1], partner 342 µg/mL | 0.912 | 0.849 | 0.872 | – | – | –
[2], partner 85.5 µg/mL | – | – | – | 0.924 | 0.815 | 0.372
[2], partner 171 µg/mL | – | – | – | ≥ 1 | 0.853 | 0.49
[2], partner 342 µg/mL | – | – | – | 0.923 | 0.86 | 0.501

fitness
Conditions | first compound 0.0312 µg/mL | first compound 0.0625 µg/mL | first compound 0.125 µg/mL | first compound 0.1725 µg/mL | first compound 0.345 µg/mL | first compound 0.69 µg/mL
[1], partner 85.5 µg/mL | 0.0534 | 0.0358 | 0.0491 | – | – | –
[1], partner 171 µg/mL | 0.0369 | 0.0387 | 0.0458 | – | – | –
[1], partner 342 µg/mL | 0.0441 | 0.0408 | 0.0398 | – | – | –
[2], partner 85.5 µg/mL | – | – | – | 0.937 | 0.878 | 0.602
[2], partner 171 µg/mL | – | – | – | 0.946 | 0.87 | 0.62
[2], partner 342 µg/mL | – | – | – | 0.918 | 0.877 | 0.625

Conditions | Bliss interaction score
[3] | -0.0156
[4] | -0.108
[5] | 0.108
[6] | 0.053
